Source: patent publication US8557737B2, “Methods of altering poppy characteristics” (priority 2005, dated 2013)

How the values were obtained:
Type in all cases: in vivo, Papaver somniferum
poppy crops [1] = experiment: Example 17: field trial, triasulfuron, mesosulfuron-methyl and metsulfuron-methyl at early run-up and mid-late run-up, morphine crop; conditions: for PLANT HEIGHT: 6 weeks after last application; for LODGING: at capsule harvest
Procedure: (§1) All trials were conducted on poppy crops. Seed was treated with Thiram (5.6 g of Thiram 800/kg seed) and Apron (4 g/kg) and sown at a rate of approximately 750 g/ha. Fertilisers were applied at sowing. Most commonly, either 50:50 lime:superphosphate/triple superphosphate at 125 kg/ha, or lime:superphosphate at 250 kg/ha, were mixed with seed and drilled at a depth of 15 mm. In the same operation, NPK (nitrogen:phosphorus:potassium), at various rates, was banded 75 mm below the seed, unless otherwise stated. All crops were subjected to herbicide sprays for weed control, fungicide sprays for disease control, insecticide sprays if appropriate and were irrigated as required.
(§2) All spray applications were made with a precision sprayer, using Silvan Lurmark flat-fan, low-drift nozzles (LD110-0015). Spray equipment was calibrated to deliver 153 L water/ha.
(§3) At harvest, a 2 m×4 m quadrat was placed in each plot (3 m×6 m, unless otherwise stated) and capsules hand-picked from this area. Capsules were broken up, seed and capsule material separated and weighed. Capsule moisture readings were taken with a moisture meter. Alkaloid yield data were calculated on Pesticide Research Manager (version 5 for Windows) using the formulae below. Briefly, capsule weight was adjusted for moisture to a dry weight, 5% of seed weight was added to this (this amount of capsule material regularly occurs in seed samples after processing) to give a capsule weight per plot. Seed weight was adjusted to 95% of crude weight. Straw weights were determined by multiplying dry capsule weight by 1.3 (estimated amount of stem material in a commercial harvest) and adjusted to 11% moisture. When Lontrel was applied to crops exact capsule and seed weight data were entered. Analyses of variance and a Multiple Range Test were performed on data using Pesticide Research Manager.
Trial to evaluate applications of triasulfuron, mesosulfuron-methyl and metsulfuron-methyl, in a morphine crop. Treatment sprays were applied to with crop at early run-up and mid-late run-up, respectively. Plant heights were measured on 6 weeks after last application and lodging was assessed at capsule harvest.

poppy crops [2] = experiment: Example 18: field trial, triasulfuron, mesosulfuron-methyl and metsulfuron-methyl at row cover, mid run-up and early hook, morphine crop; conditions: MRU and LRU; for PLANT HEIGHT: 5 weeks after last application; for LODGING: at capsule harvest
Procedure: as §1, §2, §3
Trial to evaluate applications of triasulfuron, mesosulfuron-methyl and metsulfuron-methyl, in a morphine crop. […] Plant heights were measured 5 weeks after last application and lodging at capsule harvest.

poppy crops [3] = experiment: Example 16: field trial, metsulfuron-methyl, mesosulfuron-methyl and triasulfuron at row cover and ground cover/early run-up, morphine crop; conditions: for PLANT HEIGHT: 5 weeks after last application
Procedure: as §1, §2, §3
Trial to evaluate applications of metsulfuron-methyl (Compound 1), mesosulfuron-methyl (Compound 2) and triasulfuron (Compound 3), in a morphine crop. Treatment sprays were applied to crop at row cover and ground cover/early run-up, respectively. Plant heights were assessed 5 weeks after last application and lodging was assessed at capsule harvest.

poppy crops [4] = experiment: Example 10: field trial, triasulfuron and metsulfuron-methyl, morphine crop
Procedure: as §1, §2
as §3, with “Manager. Significant differences (P=0.05) between treatments are denoted by different lower case letters adjacent to treatment means in the tables of results.” for “Manager.”
[…] Treatment sprays were applied to crop at ground cover, mid run-up and bud-emergence, respectively.

[5] = Trt 3: COMPOUND 3 75 MG/HA + PULSE .2% V/V at ERU and M-LRU
[6] = Trt 4: COMPOUND 3 150 MG/HA + PULSE .2% V/V at ERU and M-LRU
[7] = Trt 3: COMPOUND 3 75 MG/HA + PULSE .2% V/V at RC
[8] = Trt 4: COMPOUND 3 150 MG/HA + PULSE .2% V/V at RC
[9] = Trt 3: COMPOUND 3 75 MG/HA + PULSE .2% V/V at RC and GC/ERU
[10] = Trt 4: COMPOUND 3 150 MG/HA + PULSE .2% V/V at RC and GC/ERU
[11] = COMPOUND 3 263 MG/HA + PULSE .2 % V/V at GC and RU
[12] = COMPOUND 3 525 MG/HA + PULSE .2 % V/V at GC (one application)
[13] = COMPOUND 3 525 MG/HA + PULSE .2 % V/V at GC and RU

**Q.** Which “CAPS/SEED RATIO” value (poppy crops [1]; [5]) does the source give for `COc1nc(C)nc(NC(=O)NS(=O)(=O)c2ccccc2OCCCl)n1` [Compound 3, triasulfuron] here?
**A.** 3.677 c

**Q.** What about the “CROP WEIGHT” value (poppy crops [1]; [5]) of the same compound?
**A.** 2.79 b t/ha

**Q.** What about the MORPHINE (poppy crops [1]; [5]) of the same compound?
**A.** 51.94 a kg/ha

**Q.** And the SEED (poppy crops [1]; [5])?
**A.** 451 b kg/ha

**Q.** And the STRAW (poppy crops [1]; [5])?
**A.** 2299 a kg/ha

**Q.** What about the “STRAW MORPHINE” value (poppy crops [1]; [5]) of the same compound?
**A.** 2.26 b %

**Q.** And the “PLANT HEIGHT” value (poppy crops [1]; [5])?
**A.** 100.2 bc cm

**Q.** And the LODGING (poppy crops [1]; [5])?
**A.** 1.6 b %

**Q.** And the “CAPS/SEED RATIO” value (poppy crops [1]; [6])?
**A.** 6.016 b

**Q.** What about the “CROP WEIGHT” value (poppy crops [1]; [6]) of the same compound?
**A.** 1.71 c t/ha

**Q.** And the MORPHINE (poppy crops [1]; [6])?
**A.** 25.78 c kg/ha

**Q.** And the SEED (poppy crops [1]; [6])?
**A.** 175 c kg/ha

**Q.** What about the STRAW (poppy crops [1]; [6]) of the same compound?
**A.** 1331 c kg/ha

**Q.** And the “STRAW MORPHINE” value (poppy crops [1]; [6])?
**A.** 1.93 d %

**Q.** And the “PLANT HEIGHT” value (poppy crops [1]; [6])?
**A.** 90.4 cm·days

**Q.** What about the LODGING (poppy crops [1]; [6]) of the same compound?
**A.** 11.9 a %

**Q.** What about the “CAPS/SEED RATIO” value (poppy crops [2]; [7]) of the same compound?
**A.** 1.358 b

**Q.** What about the “CROP WEIGHT” value (poppy crops [2]; [7]) of the same compound?
**A.** 3.43 a t/ha

**Q.** What about the MORPHINE (poppy crops [2]; [7]) of the same compound?
**A.** 51.88 a kg/ha

**Q.** And the SEED (poppy crops [2]; [7])?
**A.** 1161 b kg/ha

**Q.** And the STRAW (poppy crops [2]; [7])?
**A.** 2217 a kg/ha

**Q.** And the “STRAW MORPHINE” value (poppy crops [2]; [7])?
**A.** 2.33 a %

**Q.** And the “PLANT HEIGHT” value (poppy crops [2]; [7])?
**A.** 93.0 c cm

**Q.** What about the LODGING (poppy crops [2]; [7]) of the same compound?
**A.** 2.2 a %

**Q.** What about the “CAPS/SEED RATIO” value (poppy crops [2]; [8]) of the same compound?
**A.** 2.664 a

**Q.** What about the “CROP WEIGHT” value (poppy crops [2]; [8]) of the same compound?
**A.** 2.32 c t/ha

**Q.** And the MORPHINE (poppy crops [2]; [8])?
**A.** 37.62 c kg/ha

**Q.** What about the SEED (poppy crops [2]; [8]) of the same compound?
**A.** 482 c kg/ha

**Q.** And the STRAW (poppy crops [2]; [8])?
**A.** 1797 b kg/ha

**Q.** What about the “STRAW MORPHINE” value (poppy crops [2]; [8]) of the same compound?
**A.** 2.09 c %

**Q.** And the “PLANT HEIGHT” value (poppy crops [2]; [8])?
**A.** 81.4 cm·days

**Q.** What about the LODGING (poppy crops [2]; [8]) of the same compound?
**A.** 2.6 a %

**Q.** And the “CAPS/SEED RATIO” value (poppy crops [3]; [9])?
**A.** 1.259 b

**Q.** And the “CROP WEIGHT” value (poppy crops [3]; [9])?
**A.** 3.47 b t/ha

**Q.** What about the MORPHINE (poppy crops [3]; [9]) of the same compound?
**A.** 49.16 a kg/ha

**Q.** What about the SEED (poppy crops [3]; [9]) of the same compound?
**A.** 1233 c kg/ha

**Q.** What about the STRAW (poppy crops [3]; [9]) of the same compound?
**A.** 2211 a kg/ha

**Q.** What about the “STRAW MORPHINE” value (poppy crops [3]; [9]) of the same compound?
**A.** 2.21 a %

**Q.** And the “PLANT HEIGHT” value (poppy crops [3]; [9])?
**A.** 103.4 b cm

**Q.** And the “CAPS/SEED RATIO” value (poppy crops [3]; [10])?
**A.** 1.959 a

**Q.** And the “CROP WEIGHT” value (poppy crops [3]; [10])?
**A.** 2.18 c t/ha

**Q.** What about the MORPHINE (poppy crops [3]; [10]) of the same compound?
**A.** 32.34 c kg/ha

**Q.** What about the SEED (poppy crops [3]; [10]) of the same compound?
**A.** 581 d kg/ha

**Q.** What about the STRAW (poppy crops [3]; [10]) of the same compound?
**A.** 1589 c kg/ha

**Q.** And the “STRAW MORPHINE” value (poppy crops [3]; [10])?
**A.** 2.03 b %

**Q.** What about the “PLANT HEIGHT” value (poppy crops [3]; [10]) of the same compound?
**A.** 88.6 c cm

**Q.** What about the “CAPSULE/SEED RATIO” value (poppy crops [4]; [11]) of the same compound?
**A.** 3.170 b

**Q.** And the “CROP WEIGHT” value (poppy crops [4]; [11])?
**A.** 0.79 d t/ha

**Q.** And the HEIGHT (poppy crops [4]; [11])?
**A.** 71.0 cm·days

**Q.** And the MORPHINE (poppy crops [4]; [11])?
**A.** 13.17 d kg/ha

**Q.** What about the SEED (poppy crops [4]; [11]) of the same compound?
**A.** 141 c kg/ha

**Q.** And the STRAW (poppy crops [4]; [11])?
**A.** 644 d kg/ha

**Q.** What about the “STRAW MORPHINE” value (poppy crops [4]; [11]) of the same compound?
**A.** 2.03 b %

**Q.** And the “CAPSULE/SEED RATIO” value (poppy crops [4]; [12])?
**A.** 1.762 c

**Q.** And the “CROP WEIGHT” value (poppy crops [4]; [12])?
**A.** 1.40 c t/ha

**Q.** What about the HEIGHT (poppy crops [4]; [12]) of the same compound?
**A.** 75.6 c cm

**Q.** What about the MORPHINE (poppy crops [4]; [12]) of the same compound?
**A.** 20.55 b kg/ha

**Q.** And the SEED (poppy crops [4]; [12])?
**A.** 408 b kg/ha

**Q.** And the STRAW (poppy crops [4]; [12])?
**A.** 992 b kg/ha

**Q.** And the “STRAW MORPHINE” value (poppy crops [4]; [12])?
**A.** 2.06 b %

**Q.** What about the “CAPSULE/SEED RATIO” value (poppy crops [4]; [13]) of the same compound?
**A.** 1.338 days

**Q.** And the “CROP WEIGHT” value (poppy crops [4]; [13])?
**A.** 0.17 e t/ha

**Q.** And the HEIGHT (poppy crops [4]; [13])?
**A.** 55.0 e cm

**Q.** And the MORPHINE (poppy crops [4]; [13])?
**A.** 1.99 e kg/ha

**Q.** What about the SEED (poppy crops [4]; [13]) of the same compound?
**A.** 60 c kg/ha

**Q.** What about the STRAW (poppy crops [4]; [13]) of the same compound?
**A.** 113 e kg/ha

**Q.** And the “STRAW MORPHINE” value (poppy crops [4]; [13])?
**A.** 1.76 c %
